Results as given in patent US8802597B2, “Herbicidal pyrimidines” (E I du Pont de Nemours and Company, priority 2003, dated 2014).

Tests used:
Assay type in all cases: in vivo
[1] = test system: velvetleaf (Abutilon theophrasti); experiment: Test A pre/postemergence
Method in brief: (§1)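 Greenhouse herbicide test with preemergence directed soil spray and postemergence foliar spray at the 1- to 2-leaf stage; visual control rating 0–100 versus untreated at ~10 days.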

[2] = test system: redroot pigweed (Amaranthus retroflexus); experiment: Test A pre/postemergence
Method in brief: as §1

[3] = test system: giant foxtail (Setaria faberi); experiment: Test A pre/postemergence
Method in brief: as §1

[4] = test system: morningglory (Ipomoea spp.); experiment: Test A pre/postemergence
Method in brief: as §1

[5] = test system: crabgrass (Digitaria sanguinalis); experiment: Test A pre/postemergence
Method in brief: as §1

[6] = test system: barnyardgrass (Echinochloa crus-galli); experiment: Test A pre/postemergence
Method in brief: as §1

[7] = test system: junglerice (Echinochloa colona); experiment: Test E flooded paddy water application; details: Flood, 21 days, scale 0 to 100 (0 no effect, 100 complete control)
Method in brief: (§2)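 Weeds sown in sterilized Tama silt loam (2.6% organic matter), greenhouse 29.5/26.7° C, 16-h photoperiod; at 2.0–2.5-leaf stage pots flooded to 3 cm and compound added to paddy water. Visual rating vs untreated controls after 21 days, 0 (no effect) to 100 (complete control).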

[8] = test system: transplanted rice seedlings (Oryza sativa cv. ‘Japonica-M202’); experiment: Test E flooded paddy water application; details: Flood, 21 days, scale 0 to 100 (0 no effect, 100 complete control)
Method in brief: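 Response scored visually on a 0–100 scale (100 = complete control) at 21 days against untreated pots. Treatment was into paddy water 3 cm deep over silt loam, with plants at the 2.0–2.5-leaf stage, grown under 16-h light at 29.5/26.7 °C day/night.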

[9] = test system: ducksalad (Heteranthera limosa); experiment: Test E flooded paddy water application; details: Flood, 21 days, scale 0 to 100 (0 no effect, 100 complete control)
Method in brief: as §2

[10] = test system: smallflower umbrella sedge (Cyperus difformis); experiment: Test E flooded paddy water application; details: Flood, 21 days, scale 0 to 100 (0 no effect, 100 complete control)
Method in brief: as §2

[11] = test system: water seeded rice seedlings (Oryza sativa cv. ‘Japonica-M202’); experiment: Test E flooded paddy water application; details: Flood, 21 days, scale 0 to 100 (0 no effect, 100 complete control)
Method in brief: as §2

[12] = test system: late watergrass (Echinochloa oryzicola); experiment: Test E flooded paddy water application; details: Flood, 21 days, scale 0 to 100 (0 no effect, 100 complete control)
Method in brief: as §2

[13] = test system: bearded (brdd.) sprangletop (Leptochloa fusca ssp. fascicularis); experiment: Test E flooded paddy water application; details: Flood, 21 days, scale 0 to 100 (0 no effect, 100 complete control)
Method in brief: as §2

[14] = test system: early watergrass (Echinochloa oryzoides); experiment: Test E flooded paddy water application; details: Flood, 21 days, scale 0 to 100 (0 no effect, 100 complete control)
Method in brief: as §2

[15] = test system: rice flatsedge (Cyperus iria); experiment: Test E flooded paddy water application; details: Flood, 21 days, scale 0 to 100 (0 no effect, 100 complete control)
Method in brief: as §2

[16] = test system: purple redstem (Ammannia coccinea); experiment: Test E flooded paddy water application; details: Flood, 21 days, scale 0 to 100 (0 no effect, 100 complete control)
Method in brief: as §2

[17] = test system: barnyardgrass (Echinochloa crus-galli); experiment: Test E flooded paddy water application; details: Flood, 21 days, scale 0 to 100 (0 no effect, 100 complete control)
Method in brief: as §2

[18] = Postemergence, 125 g ai/ha, 0 to 100 scale (0 no effect, 100 complete control)
[19] = Postemergence, 500 g ai/ha, 0 to 100 scale (0 no effect, 100 complete control)
[20] = Preemergence, 125 g ai/ha, 0 to 100 scale where 0 is no effect and 100 is complete control, approximately ten days
[21] = Preemergence, 500 g ai/ha, 0 to 100 scale where 0 is no effect and 100 is complete control, approximately ten days

CCOC(=O)c1nc(-c2ccc(C)c(C)c2)nc(N)c1Cl [Compound 71]
45: Junglerice plant response rating ([7]; 250 g ai/ha)
5: Plant response rating, Pigweed [2, 18] | Plant response rating, Crabgrass [5, 19]
0: Plant response rating, Pigweed [2, 20] | Plant response rating, Foxtail, Giant [3, 18] | Plant response rating, Foxtail, Giant [3, 19] | Plant response rating, Foxtail, Giant [3, 20] | Plant response rating, Foxtail, Giant [3, 21] | Plant response rating, Morningglory [4, 18] | Plant response rating, Morningglory [4, 19] | Plant response rating, Morningglory [4, 20] | Plant response rating, Morningglory [4, 21] | Plant response rating, Crabgrass [5, 18] | Plant response rating, Crabgrass [5, 20] | Plant response rating, Crabgrass [5, 21] | Plant response rating, Barnyardgrass [6, 18] | Plant response rating, Barnyardgrass [6, 19] | Plant response rating, Barnyardgrass [6, 20] | Plant response rating, Barnyardgrass [6, 21] | Junglerice plant response rating ([7]; 32 g ai/ha) | Junglerice plant response rating ([7]; 64 g ai/ha) | Junglerice plant response rating ([7]; 125 g ai/ha) | Plant response rating, Junglerice ([7]; 16 g ai/ha) | Rice, Transplanted plant response rating ([8]; 32 g ai/ha) | Rice, Transplanted plant response rating ([8]; 64 g ai/ha) | Rice, Transplanted plant response rating ([8]; 125 g ai/ha) | Rice, Transplanted plant response rating ([8]; 250 g ai/ha) | Plant response rating, Rice, Transplanted ([8]; 16 g ai/ha) | Sedge, Umbrella plant response rating ([10]; 32 g ai/ha) | Sedge, Umbrella plant response rating ([10]; 64 g ai/ha) | Plant response rating, Sedge, Umbrella ([10]; 16 g ai/ha) | Rice, Water Seeded plant response rating ([11]; 32 g ai/ha) | Rice, Water Seeded plant response rating ([11]; 64 g ai/ha) | Rice, Water Seeded plant response rating ([11]; 125 g ai/ha) | Rice, Water Seeded plant response rating ([11]; 250 g ai/ha) | Plant response rating, Rice, Water Seeded ([11]; 16 g ai/ha) | Watergrass, Late plant response rating ([12]; 32 g ai/ha) | Watergrass, Late plant response rating ([12]; 64 g ai/ha) | Watergrass, Late plant response rating ([12]; 125 g ai/ha) | Watergrass, Late plant response rating ([12]; 250 g ai/ha) | Plant response rating, Watergrass, Late ([12]; 16 g ai/ha) | Sprangletop, Brdd. plant response rating ([13]; 32 g ai/ha) | Sprangletop, Brdd. plant response rating ([13]; 125 g ai/ha) | Watergrass, Early plant response rating ([14]; 32 g ai/ha) | Watergrass, Early plant response rating ([14]; 64 g ai/ha) | Watergrass, Early plant response rating ([14]; 125 g ai/ha) | Watergrass, Early plant response rating ([14]; 250 g ai/ha) | Plant response rating, Watergrass, Early ([14]; 16 g ai/ha) | Flatsedge, Rice plant response rating ([15]; 32 g ai/ha) | Flatsedge, Rice plant response rating ([15]; 64 g ai/ha) | Flatsedge, Rice plant response rating ([15]; 125 g ai/ha) | Flatsedge, Rice plant response rating ([15]; 250 g ai/ha) | Plant response rating, Flatsedge, Rice ([15]; 16 g ai/ha) | Redstem plant response rating ([16]; 32 g ai/ha) | Redstem plant response rating ([16]; 64 g ai/ha) | Redstem plant response rating ([16]; 125 g ai/ha) | Plant response rating, Redstem ([16]; 16 g ai/ha) | Barnyardgrass plant response rating ([17]; 32 g ai/ha) | Barnyardgrass plant response rating ([17]; 64 g ai/ha) | Barnyardgrass plant response rating ([17]; 125 g ai/ha) | Plant response rating, Barnyardgrass ([17]; 16 g ai/ha)
40: Plant response rating, Velvetleaf [1, 18]
100: Ducksalad plant response rating ([9]; 32 g ai/ha) | Ducksalad plant response rating ([9]; 64 g ai/ha) | Ducksalad plant response rating ([9]; 125 g ai/ha) | Ducksalad plant response rating ([9]; 250 g ai/ha) | Plant response rating, Ducksalad ([9]; 16 g ai/ha)
50: Plant response rating, Velvetleaf [1, 21]
30: Plant response rating, Velvetleaf [1, 20] | Plant response rating, Pigweed [2, 19] | Sedge, Umbrella plant response rating ([10]; 125 g ai/ha) | Redstem plant response rating ([16]; 250 g ai/ha)
55: Plant response rating, Velvetleaf [1, 19]
70: Sedge, Umbrella plant response rating ([10]; 250 g ai/ha)
60: Sprangletop, Brdd. plant response rating ([13]; 250 g ai/ha) | Barnyardgrass plant response rating ([17]; 250 g ai/ha)
15: Plant response rating, Pigweed [2, 21]
